Source: PMC3133966 (Nature neuroscience, 2011)

Legend:
[1] = biological target: T1, KCNQ5 (Kv7.5); presynaptic KCNQ5 homomers (Rattus norvegicus, UniProt F1LY25); experiment: whole-cell patch clamp of rat calyx of Held, outward K+ current; type: cell-based; settings: read-out: % inhibition at 100 μM
[2] = biological target: T1, KCNQ5 (Kv7.5); presynaptic KCNQ5 homomers; experiment: as above; type: cell-based; settings: read-out: % of control current remaining at 10 μM

T1 sequence (F1LY25 1-951): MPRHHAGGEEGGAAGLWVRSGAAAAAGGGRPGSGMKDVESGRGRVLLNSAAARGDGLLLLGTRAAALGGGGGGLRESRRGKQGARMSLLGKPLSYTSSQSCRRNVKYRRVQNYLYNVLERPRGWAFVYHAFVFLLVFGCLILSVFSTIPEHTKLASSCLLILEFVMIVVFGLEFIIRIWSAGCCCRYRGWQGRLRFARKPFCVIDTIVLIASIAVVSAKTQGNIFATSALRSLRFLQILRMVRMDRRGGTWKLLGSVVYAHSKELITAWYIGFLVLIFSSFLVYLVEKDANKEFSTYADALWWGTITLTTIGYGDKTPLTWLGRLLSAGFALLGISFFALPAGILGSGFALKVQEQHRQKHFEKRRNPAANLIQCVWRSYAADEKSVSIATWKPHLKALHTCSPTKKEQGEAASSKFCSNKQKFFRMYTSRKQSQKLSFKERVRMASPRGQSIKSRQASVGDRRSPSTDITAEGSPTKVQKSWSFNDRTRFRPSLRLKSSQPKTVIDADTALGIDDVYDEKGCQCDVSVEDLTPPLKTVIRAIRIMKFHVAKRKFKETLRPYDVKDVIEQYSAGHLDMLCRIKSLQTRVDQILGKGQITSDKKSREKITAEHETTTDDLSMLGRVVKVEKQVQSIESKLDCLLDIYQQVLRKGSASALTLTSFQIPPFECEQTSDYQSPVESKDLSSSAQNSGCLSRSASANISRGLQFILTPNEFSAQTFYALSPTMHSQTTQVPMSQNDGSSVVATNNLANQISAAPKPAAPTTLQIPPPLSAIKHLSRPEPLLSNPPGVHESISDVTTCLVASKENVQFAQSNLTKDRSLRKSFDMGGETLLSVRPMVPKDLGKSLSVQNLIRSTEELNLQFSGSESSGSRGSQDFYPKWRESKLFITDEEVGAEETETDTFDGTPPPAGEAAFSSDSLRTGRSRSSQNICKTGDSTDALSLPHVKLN

Row | Structure (SMILES) | inhibition at 100 µM [1] [%] | remaining activity at 10 µM [2] [%]
1 | O=C(O)Cc1ccccc1Nc1c(Cl)cccc1Cl [diclofenac] | 53 ± 4 | 
2 | O=C1N(c2ccccc2)c2ccccc2C1(Cc1ccncc1)Cc1ccncc1 [linopirdine] |  | 17 ± 4
